Reference: US10813929B2, “Treating cancer with ATR inhibitors” (VERTEX PHARMACEUTICALS INCORPORATED, priority 2011, dated 2020)

How the values were obtained:
[1] = test system: pancreatic cancer cells; experiment: Cell cycle analysis by flow cytometry after irradiation; assay type: cell-based; settings: 1 μM VE-821 1 h prior to 6 Gy; FIG. 7 (hypoxic), FIG. 4
Procedure: VE-821 (1 μM) was added 1 h prior to 6 Gy irradiation and left for the duration of the experiment. Cells were lifted and fixed at 12 h or 24 h after irradiation, stained with propidium iodide and analysed for cell cycle distribution by flow cytometry (n=3) Cells were pre-incubated under hypoxic (0.5% O2) conditions for 6 h and 1 μM VE-821 was added 1 h prior to irradiation (6 Gy). Cells were transferred to normoxia 1 h after irradiation and were lifted and fixed at 12 h or 24 h after irradiation, stained with propidium iodide and analysed for cell cycle distribution by flow cytometry (n=3). Cells growing in 6-well dishes were treated with 1 μM VE-821 drug 1 h prior to 6 Gy irradiation. Cells were incubated for 6 h before irradiation under oxia (21% O2) or hypoxia (0.5% O2) using tightly sealed chambers. At multiple time points, cells were lifted in trypsin and fixed in 70% ethanol and stored at 4° C. Cells were incubated with propidium iodide (50 μg/ml in PBS containing 200 μg/ml RNAse) for 1 h at room temperature and analysed by flow cytometry (FACSort, Becton Dickinson). Cell cycle phase was quantitated using ModFit Cell Cycle Analysis software.

[2] = test system: MiaPaCa pancreatic cancer xenograft; experiment: MiaPaCa pancreatic cancer xenograft model with ionizing radiation; assay type: in vivo; settings: FIG. 13
[3] = test system: primary adenocarcinoma NSCLC xenograft; experiment: Primary adenocarcinoma NSCLC xenograft model; assay type: in vivo, SCID mice; settings: VE-822 60 mg/kg po qd4 with cisplatin 1 or 3 mg/kg ip q7d; FIG. 20
Procedure: Tumor tissue was excised from a patient with a poorly differentiated adenocarcinoma. This tumor tissue was implanted subcutaneously in the flank of a SCID mouse and passaged twice before compound testing. For compound testing passage-two tumor tissue was implanted subcutaneously in the flank of SCID mice and tumors grown to a volume of about 200 mm^3 Cisplatin was dosed alone at either 1 or 3 mg/kg ip, once per week (ip, q7d, on day 2 of each week) for two weeks. VE-822 was dosed as a solution alone at 60 mg/kg po on 4 consecutive days per weekly cycle (qd4, dosed on days 1, 2, 3 and 4 each week). Two combination groups received cisplatin at 1 or 3 mg/kg plus VE-822 at 60 mg/kg po on the same schedule as the single agent group. A control group received vehicle alone (10% Vitamin E TPGS in water, po qd4). All drug treatment was stopped on Day 28. Vehicle, cisplatin (1 mg/kg) and VE-822 (60 mg/kg) groups were sacrificed and the remainder monitored for a further 40 days to assess tumor re-growth.
Data are mean±sem, n=9-10. […]

[4] = test system: PSN1 pancreatic cancer xenografts; experiment: PSN1 pancreatic cancer xenograft model with gemcitabine; assay type: in vivo, female nude MF1 mice; settings: VE-822 PO q2d 10, 30 or 60 mg/kg with gemcitabine 15 mg/kg IP q3d; FIG. 21
Procedure: PSN1 cells (1×10^6 cells per mouse) were implanted as a mixture in Matrigel (100 μl per mouse) into the flank of female nude MF1 mice and grown to a volume of about 200 mm^3 prior to compound administration. Gemcitabine was dosed alone at 15 mg/kg ip, once every three days (ip, q3d) in 0.5% methylcellulose in water for a maximum of 10 cycles. VE-822 was dosed, as a suspension in 0.5% methylcellulose in water, alone at either 10, 30 or 60 mg/kg po every other day for 28 days (po q2d). Three combination groups received gemcitabine at 15 mg/kg plus VE-822 either at 10, 30 or at 60 mg/kg po on the same schedule as the single agent groups. A control group received vehicle alone (0.5% methylcellulose ip q3d). All drug treatment was stopped on Day 30. Vehicle and VE-822 groups were sacrificed on day 13 due to excessive tumor volumes.
Data shown are mean tumor volume±SEM (n=8 per group). Red filled circles are VE-822 treatment; Black filled squares are vehicle treatment; Green filled circles are gemcitabine treatment; Blue filled circles are gemcitabine and VE-822 (10 mg/kg) treatment; Red filled circles are gemcitabine and VE-822 (30 mg/kg) treatment; Pink filled circles are gemcitabine and VE-822 (60 mg/kg) treatment;

[5] = test system: pancreatic cancer cell lines; experiment: Pancreatic cancer cell screen, CellTiter-Glo cell viability assay; assay type: cell-based
Procedure: All cell lines were seeded in 30 μl of tissue culture medium containing 10% FBS into 384-well opaque-bottom plates. The seeding density was based on the logarithmic growth rate of each cell line. After 24 hours, compound stock solutions were added to each well to afford a matrix consisting of 9 concentrations for VE-822 and 7 concentrations for Gemcitabine and Cisplatin. Each well contains either, agent alone or a combination of both agents. The final concentration ranges were as follows: VE-822, 0.3 nM-2 μM; Gemcitabine, 0.3 nM-0.22 μM; Cisplatin, 30 nM-20 μM. The cells were then incubated for 96 hours at 37° C. in an atmosphere of 5% CO2 and 95% humidity.
This assay measures the number of viable cells in a culture based on the quantitation of ATP, which is present in metabolically active cells.
CellTiter-Glo Reagent (Promega, Madison, Wis., USA) was prepared according to the manufacturer's instructions and added 96 hours after compound addition (25 μl/well) to measure cell viability. Luminescence signal was measured with the PHERAStarFS (BMG Labtech, Cary, N.C., USA) automated plate reader. […]
Raw luminescence CellTiter-Glo (CTG) values were normalized to the mean CTG value for the negative control DMSO-treated samples on each assay plate. IC50 values for chemotoxic alone were calculated using DMSO-normalized cell survival values for the samples treated with chemotoxic compound alone. […]

| SMILES | damage-induced cell cycle checkpoints [1] | antitumor effects of ionizing radiation (tumor volume over time) [2] | antitumor effects of cisplatin (tumor volume) [3] | antitumor effects of gemcitabine (tumor volume) [4] | synergy with cisplatin and gemcitabine in pancreatic cancer cell lines ([5]; maximum shift in IC50 of each chemotoxic, 96 hours, FIG. 18) | synergy (shift in IC50 of chemotoxic) in pancreatic cancer cell lines ([5]; with chemotoxics, FIG. 19) |
| --- | --- | --- | --- | --- | --- | --- |
| CS(=O)(=O)c1ccc(-c2cnc(N)c(C(=O)Nc3ccccc3)n2)cc1 [VE-821] | disrupts damage-induced cell cycle checkpoints |  |  |  |  |  |
| CNCc1ccc(-c2cc(-c3nc(-c4ccc(S(=O)(=O)C(C)C)cc4)cnc3N)on2)cc1 [VE-822] |  | enhances the antitumor effects of ionizing radiation | enhances the antitumor effects of cisplatin | enhances the antitumor effects of gemcitabine | Synergizes with Cisplatin and Gemcitabine | Greater than 3 fold |
